# Test results published in patent US20260102387A1, “IMMUNOSUPPRESSIVE COMPOUNDS” (UNIVERSITÄT BASEL, priority 2022, published 2026).
# Entries after “also recorded” stand apart in the source; their conditions may differ.
# Assays:
# [1] = tested on: human PBMCs (CD4 and CD8 T cells); assay: Proinflammatory cytokine production in human PBMCs after CD3/CD28 stimulation, flow cytometry; assay type: cell-based; settings: 10 μg/ml, 4.5 days, CD3 and CD28 antibodies
# Protocol: Heparinized or EDTA treated blood or buffy coat from healthy volunteers were enriched for monocytes using the standard Histopaque 1.077 gradient centrifugation methodology. Post enrichment, the monocyte fraction was washed extensively with plain RPMI and subsequently counted and seeded in 96 well plate at a density of 0.2 million cells/well in a volume of 200 μl RPMI-1640 (Sigma) containing 1× penicillin and streptomycin (Gibco), 2 mM L-glutamine (Gibco), 10% heat inactivated FCS (PAA) and heparin 50 units/ml along with the vehicle (DMSO) or coronin 1 inhibitor at indicated concentrations. Cells were incubated in a 37° C. humidified incubator with a 5% CO2 for five days with the expression inhibitor and vehicle replenished in between at 48 hours post seeding by replacing 50% of the media. Subsequently, the cells were assessed for coronin 1 down regulation by Western blotting (FIG. 8A) and in parallel stimulated with anti-CD3 (2 μg/ml) and anti-CD28 (10 μg/ml) antibodies overnight and treated with brefeldin A for a duration of 4 h and subjected to surface staining (for CD3, CD4, CD8 and CD19) along with live-dead marker and fixed with 4% formaldehyde, permeabilized with 0.1% saponin and subjected to intracellular staining for interleukin-2 (FIG. 8B,C).
# coronin 1 mRNA = assay: Quantitative PCR of coronin 1 mRNA in RBL cells; assay type: cell-based, Rat; settings: 3.5 μg/ml, 7 days
# Protocol: The plasmids were independently transfected into immune cells (Rat basophil Leukemia, RBL cells) to generate green and red fluorescent RBL cells that were subsequently enriched by means of flow cytometry. These cells were then mixed in equal ratio (1:1) and incubated in a 96 well plate at 100,000 cells/well in a volume of 200 μl of phenol red free RPMI supplemented with 8% fetal calf serum, L-glutamate and antibiotics (penicillin, streptomycin) and various compounds (3 and 5 μg/ml concentrations) from available chemical libraries. At defined time points (8 h, 24 h and 48 h), the GFP and RFP fluorescence was measured using a 96 well microplate reader (Synergy, BioTek Instruments). […] Selected compounds show different levels of modulation of coronin 1 promoter driven GFP and CMV promoter driven RFP fluorescence. GFP and RFP fluorescence were analyzed with a microplate reader upon incubation with the top coronin 1 promoter inhibiting compounds. […] Cells were imaged using a fluorescence microscope to validate fluorescence inhibition (FIG. 3A) and as well assess morphology and viability (in addition to GFP down regulation confirmation). In addition, quantitative Polymerase Chain Reaction (qPCR) for coronin 1 mRNA transcripts reveal reduction with compound 11 (FIG. 3B). […]
# CMV promoter = assay: EC50 analysis for CMV promoter driven RFP inhibition (non-specific activity) by flow cytometry in RBL cells; assay type: cell-based, cytomegalovirus; settings: 48-65 h, read-out: EC50 RFP alteration
# Protocol: RBL cells expressing GFP under coronin 1 promoter and optionally with RBL cells expressing RFP under CMV promoter were mixed in equal numbers and incubated with the compounds at indicated concentrations for 48-65 h and analyzed by flow cytometry for alteration in coronin 1 promoter (GFP fluorescence), CMV promoter (RFP fluorescence) values. In addition, the cells were labelled with live-dead marker for assessing cell viability status by flow cytometry. Cycloheximide (CHX) serves as positive control and DMSO serves as negative controls. Effective Concentration (EC50) values for coronin 1 promoter inhibition via GFP fluorescence analysis, non-specific promoter inhibition via CMV promoter driven-RFP fluorescence analysis and cell viability via live/dead staining as a measure for toxicity in flow cytometry for compounds (10-22 and 50a-65a) are shown in Table 6 and Table 7. Based on the EC50 analysis of the inhibition of coronin 1 promoter driven GFP fluorescence the (4S,7R)-configurated eutomers were identified (Structures FIG. 9A-C). This is exemplified for compounds containing two stereocenters by eutomers 11c and 13a. […] Subsequent EC50 evaluations (Table 7) were performed with compound 13a as standard for relative potency normalized to a value of 1.00 (relative potency calculated as [EC50 GFP inhibition 13a]/[EC50 GFP inhibition compound of interest]).
# [2] = In vivo toxicity: hematological parameters (ADVIA) and body weight; settings: 150 mg/kg/body weight, BD, IP, six-day administration
# Protocol: Coronin 1 expression inhibitor (compound 11) was initially dissolved in DMSO at 100 mg/ml concentration. In parallel, a 50:50 solution of miglyol 812 and kolliphor EL (M+K) was prepared. Coronin 1 expression inhibitor: M+K was mixed at a ratio of 30:70 and vortexed for 5 minutes to make a homogenous suspension such that a final concentration of 30 mg/ml was obtained. 100 μl/mouse was subsequently administered either intraperitoneally or subcutaneously using an insulin syringe. The mice used for the study were separated into age and sex matched cohorts, weighed prior to start of the study and regularly monitored for body weight, behavioural changes, fur changes, faecal consistency and urine colour. […]
# coronin 1 = assay: Coronin 1 Western blotting in human PBMCs; assay type: cell-based; settings: 10 μg/ml, 5 days
# Protocol: buffer with 0.2% SDS containing protease and phosphatase inhibitors (Roche) at 4° C., followed by protein determination (BCA, Pierce) and SDS-PAGE, transferred onto nitrocellulose and probed using antibodies against the indicated proteins (actin and coronin 1) followed by HRP-labeled secondary antibodies and developed using an enhanced chemi-luminescence imager (Fuji) (FIG. 8A).
# Heparinized or EDTA treated blood or buffy coat from healthy volunteers were enriched for monocytes using the standard Histopaque 1.077 gradient centrifugation methodology. Post enrichment, the monocyte fraction was washed extensively with plain RPMI and subsequently counted and seeded in 96 well plate at a density of 0.2 million cells/well in a volume of 200 μl RPMI-1640 (Sigma) containing 1× penicillin and streptomycin (Gibco), 2 mM L-glutamine (Gibco), 10% heat inactivated FCS (PAA) and heparin 50 units/ml along with the vehicle (DMSO) or coronin 1 inhibitor at indicated concentrations. Cells were incubated in a 37° C. humidified incubator with a 5% CO2 for five days with the expression inhibitor and vehicle replenished in between at 48 hours post seeding by replacing 50% of the media. […]
# RBL cells [3] = assay: In vitro toxicity, MTT assay; assay type: cell-based, Rat
# Protocol: MTT assay was performed with 3-(4,5-dimethylthiazol-2-yl)-2,5-diphenyltetra-zolium bromide (MTT, Cayman chemicals) using the manufacturers protocol. In brief, RBL cells pretreated with coronin 1 expression inhibitor or vehicle controls were reseeded and cultured in a 96-well plate at a concentration of […] cells/ml of culture media, 10 μL of MTT was added and incubated for 4 h at 37° C. At the end, culture supernatant was removed and the formazan crystals were dissolved with 100 μl of crystal dissolving solution and the absorbance measured at 570 nm using a plate reader (Synergy) (FIG. 5B).
# RBL cells [4] = assay: Cell viability by live-dead staining (cytotoxicity), flow cytometry; assay type: cell-based, Rat; settings: Rattus norvegicus, RBL, cell viability via live/dead staining, 48-65 h, read-out: EC50 Toxicity
# In short: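 RBL cells with coronin 1 promoter-GFP, mixed 1:1 with CMV promoter-RFP RBL cells, exposed to compound 48-65 h. Flow cytometry read RFP fluorescence for non-specific promoter inhibition and live-dead staining for cytotoxicity. EC50 values derived; cycloheximide positive control, DMSO negative.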
structure (smiles),measurement,setting,value
"COC(=O)C1=C(C)NC2=C(C(=O)CC(c3ccccc3OC)C2)C1c1cccc(O)c1 (stereo not shown) [Comp. 11, methyl-4-(3-hydroxyphenyl)-7-(2-methoxyphenyl)-2-methyl-5-oxo-1,4,5,6,7,8-hexahydro-3-quinolinecarboxylate]",production of interleukin-2 (IL-2) in CD4 and CD8 T cells post T cell receptor stimulation,[1],attenuates immune responses
same,coronin 1 mRNA transcripts (qPCR),coronin 1 mRNA,reduction in coronin 1 transcripts
same,EC50,CMV promoter,> 9 µM
same,"in vivo toxicity: hematological parameters (RBC, WBC, platelet counts, hemoglobin), body weight",[2],did not reveal any potential toxicity; also recorded: good safety and tolerability
same,coronin 1 depletion in human PBMCs (Western blotting),coronin 1,coronin 1 depletion
same,in vitro toxicity by MTT assay,RBL cells [3],minimal toxicity
same,EC50,RBL cells [4],> 9 µM
